Reference: the supplement of paper PMC7695840

Key:
[1] = tested on: Staphylococcus aureus MW2 (mecA+); test: IC50 (growth, competition assay); settings: cefoxitin: subinhibitory
Outline: (§1)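 Per plate, DsRed (540/590) and GFP (485/520) readings were normalized between the medians of the single-strain controls, after which No Treatment was fixed at 0.5. These readings came from a 1:1 mix of pre-induced fluorescent S. aureus MW2 strains with and without the resistance gene, grown for 20 h at 37 °C and 90% humidity, unshaken, in LB with a daily-set subinhibitory drug dose in 1536-well plates. Per-strain IC50 meant the dose halving the No Treatment signal, or the maximal signal.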

[2] = tested on: Staphylococcus aureus MW2 delta-mecA (mecA-); test: IC50 (growth, competition assay); settings: cefoxitin: subinhibitory
Outline: as §1

Structure (SMILES)	IC50 ([1]; fluorescent label: DsRed)	IC50 ([1]; fluorescent label: GFP)	IC50 ([2]; fluorescent label: DsRed)	IC50 ([2]; fluorescent label: GFP)
CC[C@H](C)[C@H](N)C1=N[C@H](C(=O)N[C@@H](CC(C)C)C(=O)N[C@H](CCC(=O)O)C(=O)N[C@H](C(=O)N[C@H]2CCCCNC(=O)[C@H](CC(N)=O)NC(=O)[C@@H](CC(=O)O)NC(=O)[C@H](Cc3cnc[nH]3)NC(=O)[C@@H](Cc3ccccc3)NC(=O)[C@H]([C@@H](C)CC)NC(=O)[C@@H](CCCN)NC2=O)[C@@H](C)CC)CS1 [BACITRACIN]	> 150 µM	> 150 µM	37.8 µM	59.4 µM
N[C@@H]1CONC1=O [SEROMYCIN]	> 150 µM	110 µM	98.8 µM	91.5 µM
C=C[C@]1(C)C[C@@H](OC(=O)CS[C@@H]2C[C@H]3CC[C@@H](C2)N3C)[C@]2(C)[C@H](C)CC[C@]3(CCC(=O)[C@H]32)[C@@H](C)[C@@H]1O [Retapamulin]	< 9.85 µM	< 9.85 µM	< 9.85 µM	< 9.85 µM
CC(=O)OC[C@H]1O[C@@H]([S-])[C@H](OC(C)=O)[C@@H](OC(C)=O)[C@@H]1OC(C)=O.CCP(CC)CC.[Au+] [Auranofin]	< 9.85 µM	< 9.85 µM	< 9.85 µM	< 9.85 µM
CC(C)(C)c1cc(C=C(C#N)C#N)cc(C(C)(C)C)c1O [Tyrphostin A9]	< 9.85 µM	26 µM	35.4 µM	< 9.85 µM
CCC[C@@H]1C[C@@H](C(=O)N[C@@H]([C@H]2O[C@H](SC)[C@H](O)[C@@H](O)[C@H]2O)[C@@H](C)O)N(C)C1 [LINCOCIN]	< 9.85 µM	< 9.85 µM	< 9.85 µM	< 9.85 µM
CN(C(=O)CN(CCO)CC(=O)N(C)C(C)(C)Cc1ccccc1)C(C)(C)Cc1ccccc1 [OXETHAZAINE]	103 µM	111 µM	40.2 µM	30.5 µM
Cc1cnc(-c2ccccc2C(C)C)nc1NCc1ccc(-n2ccnn2)cc1 [ML323]	35.3 µM	49.6 µM	< 9.85 µM	< 9.85 µM
Clc1ccccc1C(c1ccccc1)(c1ccccc1)n1ccnc1 [Clotrimazole]	16.1 µM	15.8 µM	< 9.85 µM	< 9.85 µM
O=C1OC(c2ccc(O)cc2)(c2ccc(O)cc2)c2ccccc21 [EXLAX]	112 µM	52.1 µM	49.7 µM	59 µM
C=C1c2c(Cl)ccc(O)c2C(=O)C2=C(O)[C@]3(O)C(=O)C(C(N)=O)=C(O)[C@@H](N(C)C)[C@@H]3[C@@H](O)[C@H]12.O=C(O)c1cc(S(=O)(=O)O)ccc1O [MECLAN]	< 9.85 µM	< 9.85 µM	< 9.85 µM	< 9.85 µM
CN1CCN(CCCN2c3ccccc3Sc3ccc(C(F)(F)F)cc32)CC1 [Trifluoperazine 2HCl]	56.9 µM	57.1 µM	16.5 µM	14.5 µM
O=C(O)CCCCC(CCSCc1ccccc1)SCc1ccccc1 (stereo not drawn) [CPI-613]	15.5 µM	15 µM	< 9.85 µM	< 9.85 µM
OCc1ccc(-c2ccc(-c3ccc(CO)s3)o2)s1	22.4 µM	33.5 µM	< 9.85 µM	< 9.85 µM
COc1cc(Cc2cnc(N)nc2N)cc(OC)c1OC [TRIMPEX]	< 9.85 µM	< 9.85 µM	< 9.85 µM	< 9.85 µM
O=c1[nH]c(=O)n([C@H]2C[C@H](O)[C@@H](CO)O2)cc1F [FLOXURIDINE]	< 9.85 µM	< 9.85 µM	< 9.85 µM	< 9.85 µM
Cc1cc(Nc2cc(N3CCN(C)CC3)nc(/C=C/c3ccccc3)n2)n[nH]1 [ENMD-2076]	47.6 µM	55.2 µM	6.48 µM	4.72 µM
Nc1ccc(/N=N/c2ccccc2)c(N)n1 [PYRIDIUM]	> 150 µM	> 150 µM	> 150 µM	> 150 µM
CCCCCCCCCCCCCCC[C@H](O)[C@H](N)CO (racemic) [DL-erythro-Dihydrosphingosine]	15.1 µM	10.4 µM	< 9.85 µM	< 9.85 µM
Cc1cc(N)c2ccccc2[n+]1CCCCCCCCCC[n+]1c(C)cc(N)c2ccccc21 [Dequalinium Chloride]	< 9.85 µM	11.3 µM	< 9.85 µM	< 9.85 µM
CC=CC1=C(C(=O)O)N2C(=O)[C@@H](NC(=O)[C@H](N)c3ccc(O)cc3)[C@H]2SC1 [CEFZIL]	113 µM	109 µM	< 9.85 µM	< 9.85 µM
CSc1ccc2c(c1)N(CCC1CCCCN1C)c1ccccc1S2 (stereo not drawn) [MELLARIL]	66.9 µM	87.4 µM	18.9 µM	13.9 µM
CC(=O)O[C@H]1C[C@@]2(C)[C@@H](C[C@@H](O)[C@H]3[C@@]4(C)CC[C@@H](O)[C@@H](C)[C@@H]4CC[C@@]32C)/C1=C(\CCC=C(C)C)C(=O)O [FUCIDINE]	< 9.85 µM	< 9.85 µM	< 9.85 µM	< 9.85 µM
COc1cc(/C=C/C(=O)CC(=O)/C=C/c2ccc(O)c(OC)c2)ccc1O [CURCUMIN]	26.8 µM	50.1 µM	< 9.85 µM	< 9.85 µM
C[C@H]1COc2c(C3(N)CC3)c(F)cc3c(=O)c(C(=O)O)cn1c23 [PAZUCROSS]	< 9.85 µM	< 9.85 µM	< 9.85 µM	< 9.85 µM
N#C[C@H](O[C@@H]1O[C@H](CO[C@@H]2O[C@H](CO)[C@@H](O)[C@H](O)[C@H]2O)[C@@H](O)[C@H](O)[C@H]1O)c1ccccc1 [Amygdalin]	23.8 µM	28.9 µM	< 9.85 µM	< 9.85 µM
CCc1oc2ccccc2c1C(=O)c1cc(Br)c(O)c(Br)c1 [DESURIC]	< 9.85 µM	< 9.85 µM	< 9.85 µM	< 9.85 µM
